Data: US11795135B2, “Prostacyclin compounds, compositions and methods of use thereof” (Insmed Incorporated, priority 2013, dated 2023)
Entries after “also recorded” stand apart in the source; their conditions may differ.

Key:
[1] = Treprostinil alkyl ester conversion to treprostinil in dog lung tissue homogenate; format: in vitro ADME; settings: 37° C., 200 nM, 4 hours, 10 mg/mL of protein
Description: (§1) Treprostinil alkyl ester conversion to treprostinil was also measured in the presence of rat, dog and monkey lung tissue homogenate at 37° C. Here, data were calculated based on fit of exponential increase to the maximum (experiments performed in duplicate). The results of this study are provided below in Table 2A and FIG. 37. […] Both FIG. 37 experiments (left and right graphs) were performed in duplicate and the lines represent nonlinear exponential regression assuming 1 phase decay.

[2] = system: Rat alveolar NR8383 cells; experiment: NR8383 cell proliferation assay (Presto Blue); format: cell-based; settings: unformulated alkyl esters, 72 hour incubation
Description: Rat alveolar NR8383 cells were harvested when the monolayer was 50-90% confluent (use passage 5-11). Because the NR8383 cells include both adherent and non-adherent cells, media was transferred to a 50 mL Falcon tube. To obtain the cells remaining in the flask, 2 mL of plain media was added, and the remaining cells were scraped out of the 75 cm^2 flask with a cell scraper and added to the 50 mL tube. […] SH30071.03)+1×Pen-Strep (Life Technologies, cat #: 15410-122)). Cell number was determined using a hemacytometer. […] Measurements and calculations were made as described above for the CHO-K1 cells.

CHO-K1 cells = experiment: CHO-K1 cell proliferation assay (Presto Blue); settings: unformulated alkyl esters, 48 hour incubation
Description: CHO-K1 cells were harvested when the cell monolayer was 50-90% confluent (use passage 4-11). Media was aspirated out of the flask, and cells were rinsed with 2 mL of F12 media. Next, 1 mL of pre-warmed (37° C.) 0.25% trypsin-EDTA (Life Technologies, Cat #: 25300054) was added, and cells were dislodged from the flask by tapping it on the side. Complete growth media (F12 (Life Technologies, Cat #: 31765092)+10% FBS (Hyclone, Cat #: SH30071.03)+1× Pen-Strep (Life Technologies, cat #15140-122) was then added at a volume of 10 mL. Cells were centrifuged at 250×g for 5 minutes at room temperature, and the media was aspirated. The cell pellet was resuspended in 10 mL complete growth media. Cell number was determined using a hemacytometer. Cells were then seeded at 2000 cells per well of a 96-well plate in 100 μL of complete growth media. The plate was incubated overnight at 37° C. and 5% CO2 in a water-jacketed incubator.
The next day, 80 μL of fresh complete media was added to each well, and CHO-K1 cells were challenged with treprostinil compound and composition treatments. The working solutions were prepared at 10× concentration, and following 2 fold serial dilutions, 20 μL aliquots were added per well to arrive at a final 1× concentration. Following a 48 hour incubation at 37° C. and 5% CO2 in a water-jacketed incubator, the inhibitory effect on cell proliferation was determined. Plates were analyzed using 20 μL of Presto Blue reagent (Life Technologies, cat #: A13262) per well. The reagent was mixed, and plates were incubated for 1 hour at 37° C. and 5% CO2 in a water-jacketed incubator. Plates were read using either a CytoFluor Series 4000 (PerSeptive BioSystems) or Synergy Neo microplate reader (BioTek) with emission λ: 590 nm and excitation λ: 560 nm.
at concentrations ranging from 0.55 μM to 125 μM. Following a 48 hour incubation period, the inhibitory effect of the treprostinil derivative compositions on cell proliferation was determined.
C2, C3, C4, C5, C6, C8, C10 or Cu straight chain alkyl, at dosages ranging from 0.098 μM to 25 μM. Following a 48 hour incubation period, the inhibitory effect on cell proliferation was determined.
Following a 72 hour incubation period, the inhibitory effect on cell proliferation was determined. Following a 48 hour incubation period, the inhibitory effect on cell proliferation was determined.
Similarly, CHO-K1 cells were challenged with the treprostinil compositions T612 (R2=C2), T613 (R2=C8) at concentrations ranging from 1.41 μM to 180 μM.

[3] = Treprostinil alkyl ester conversion to treprostinil in rat lung tissue homogenate; format: in vitro ADME; settings: 37° C., 200 nM, 4 hours, 10 mg/mL of protein
Description: as §1

[4] = Treprostinil alkyl ester conversion to treprostinil in monkey lung tissue homogenate; format: in vitro ADME; settings: 37° C., 200 nM, 4 hours, 10 mg/mL of protein
Description: as §1

EP2 prostanoid receptor = molecular target: T1, EP2 prostanoid receptor (Homo sapiens, UniProt P43116); experiment: GloSensor cAMP assay in CHO-K1 cells co-transfected with the EP2 receptor; format: cell-based; settings: for Max cAMP level (Fold): CHO-K1 cells
T1 construct: host or cells: CHO-K1
T1 sequence (P43116 whole entry): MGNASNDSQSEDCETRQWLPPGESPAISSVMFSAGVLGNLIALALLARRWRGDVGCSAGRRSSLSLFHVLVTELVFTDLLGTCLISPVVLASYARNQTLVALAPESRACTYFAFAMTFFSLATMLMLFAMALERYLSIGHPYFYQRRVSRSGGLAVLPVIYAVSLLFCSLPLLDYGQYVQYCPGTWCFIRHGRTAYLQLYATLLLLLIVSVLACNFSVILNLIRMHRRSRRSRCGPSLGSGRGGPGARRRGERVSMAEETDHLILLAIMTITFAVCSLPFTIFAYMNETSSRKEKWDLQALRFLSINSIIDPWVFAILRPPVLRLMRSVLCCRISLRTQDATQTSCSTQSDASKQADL
Text: cAMP is a second messenger involved in signal transduction of G-protein coupled receptors (GPCRs) acting through Gα-s and Gα-i proteins. Because the treprostinil receptor is a GPCR, the assay provides an indication of whether the respective prostacyclin compound (or metabolite thereof) binds its receptor and activates the GPCR cell signaling cascade. The GloSensorTM assay harnesses a genetically modified form of firefly luciferase into which a cAMP-binding protein moiety has been inserted. Upon binding of cAMP, a conformational change is induced leading to increased light output. The EP2 prostanoid receptor was co-transfected with the GloSensorTM plasmid (Promega) into CHO-K1 cells as follows. CHO-K1 cells were harvested when the monoloayer was at 50-90% confluence. First, cells were washed with 5 mL PBS. […] The media was aspirated, and the cell pellet was resuspended in 10 mL of growth media. Cell number was determined using a hemacytometer. Each well of a culture treated 96 well flat bottom plate (Costar, Cat #: 3917) was seeded with 1×10^4 cells per 100 μL antibiotic-free growth media. […] For small scale transfections of up to 20 wells, the pGLoSensor-22F cAMP plasmid (Promega, Cat #: E2301) (2 μg): (EP2) (10 ng) (Origene, Cat #: SC126558):pGEM-3Zf(+) (10 ng) (Promega, Cat #: P2271) ratio was diluted to a final concentration of 12.6 ng/μL (total plasmid) in Opti-MEM I reduced-serum medium (Life Technologies, Cat #: 1985062). Next, 6 μL of FuGENE HD transfection reagent (Promega, Cat #: E2311) was added to 160 μL of diluted plasmid and mixed carefully by gentle pipetting. The complex was incubated at room temperature for 0 to 10 minutes, and then 8 μL of the complex was added per well of a 96 well white assay plate (Costar, Cat #: 3917) and gently mixed without disturbing the cell monolayer. […] Following incubation, cells were treated and analyzed. For larger scale transfections, the aforementioned steps were scaled up accordingly, and cells were frozen following the last incubation. In order to prepare frozen transfected CHO-K1 cells, the media was aspirated from culture flasks and cells were rinsed with 5 mL PBS. […] Cell number was determined using a hemacytometer. The media was aspirated, and the cell pellet was resuspended in freezing media (Millipore, cat #: S-002-5F) at 2.5×10^6 cells/vial. Transfected cells were incubated overnight at -80° C. before transfer to liquid nitrogen for long term storage. […] In preparation for cAMP measurement, the cells were equilibrated with the GloSensor cAMP reagent prior to treatment. For equilibration, the medium was carefully removed from the individual well. Next, 100 μL of equilibration medium ([…] of Glosensor Reagent stock solution (Promega, Cat #: E291), 10% FBS (Hyclone, Cat #: SH30071.03) and 88% CO2 independent medium (Life Technologies, Cat #: 18045088)) was added per well of the 96-well plate, and added to the side of each well. The plate was then incubated for 2 hours at room temperature. A first pre-read measurement was taken using a microplate reader (MicroLumat Plus). Plates were incubated for an additional 10 minutes at room temperature, followed by a second pre-read measurement. […] Following treatment, each plate was read every 5 minutes for the duration of the assay using a microplate reader (MicroLumat Plus). In order to determine the fold change in cAMP relative to the control, the transfection efficiency was first determined by dividing the second pre-read measurement by the average of the corresponding pre-read measurements. Next, the normalized relative light units (RLUs) of the samples were determined by dividing the plate read measurement by the transfection efficiency. The fold change in cAMP relative to the control was then determined by dividing the normalized RLU of the samples by the normalized RLU of the control. The cAMP assay was validated using free treprostinil. […] Luminescence was then measured at room temperature. […]

[5] = Tolerability and pharmacokinetics in rats, T748 inhaled for 14 consecutive days; format: in vivo, rat; settings: T748, 0.6-18 μg/kg
Description: Body weights were recorded daily and organ weights (lungs, heart, liver) were measured 24 hr. after the last drug dose.

[6] = system: Cough Reflex in Guinea Pigs; experiment: Cough reflex in guinea pigs (whole body plethysmograph); format: in vivo, guinea pig
Description: T623 has the following components:
Aerosols were generated with an Ultra-Neb Pro nebulizer (nebulizer output 0.36 mL/min.) that was mixed with inspired air delivered at a rate of 2 L/min. The PBS or drugs were delivered for 10 min. and the number of coughs recorded during and for 20 min. after the delivery. Coughs were detected by visual observations, plethysmograph recordings and cough sounds.

[7] = dog, in vivo
Description: Twelve beagle dogs of either sex were randomly assigned to different inhaled doses of treprostinil in PBS or the compound of Formula (A) wherein
Formulations were nebulized with an Aeroneb nebulizer (MMAD: 2.5-4 μm) delivered into a 500 ml expansion chamber. Formulations were nebulized for 2 min at ventilator settings of 90 ml/breath, 15 breaths/min (delivered volume=2.7 L) and collected on a filter. Drug amount (m) on the filter was measured by HPLC to calculate the concentration of drug delivered through the ventilator circuit (μg/L).
Dosimetry was performed in propofol-anesthetized dogs in which nebulized drugs were introduced into a mixing chamber interposed on the inspiratory limb of a canine respirator. Technical trials were performed before each experiment to measure the concentration of drug (μg/L) delivered for each breath. The inhaled drug dose (μ/kg) was calculated using the formula: Inhaled Drug Dose (μg/kg)=Drug Conc. (μg/L)×Minute Ventilation (L/min.)×Time (min.)/Body Weight (kg). […] Clinical signs were monitored over this 72 hr. period.
Dosimetry was performed in propofol-anesthetized, artificially ventilated dogs in which nebulized drugs were introduced into a mixing chamber interposed on the inspiratory limb of the respirator. […] Clinical signs (cough, rapid shallow breathing, emesis and pale gums) were also monitored.

[8] = Treprostinil pharmacokinetics in anaesthetised, ventilated rats after nebulized dosing; format: in vivo, rat; settings: nebulized TRE solution
Description: Male Sprague Dawley rats were anaesthetised and prepared with endotracheal tube for ventilation. The right femoral vein was cannulated to facilitate blood collections. Terminal lung samples were taken for analysis only 6 hours after dosing. […] Systemic blood pressure (mSAP), heart rate (HR), and arterial oxygen saturation (SaO2). Physiologic parameters were measured during normoxia (fraction of inspired oxygen [FrO2]=0.21, SaO2≈90%) and for 2 to 3 hours during hypoxia (FrO2=0.10, SaO2≈50%).

[9] = nebulized concentration of 30 μg/mL

SMILES: CCCCCCCCOC(=O)COc1cccc2c1C[C@H]1C[C@@H](O)[C@H](CC[C@@H](O)CCCCC)[C@H]1C2 [Compound C8-TR, treprostinil octyl ester]
- Rate of treprostinil alkyl ester conversion [1]: 49.8 nmOL/h * g of protein
- Effect on cell proliferation, NR8383 Cells (0.195 μM-25 μM) [2]: showed some inhibition of cell proliferation
- Effect on cell proliferation, CHO-K1 Cells (0.195 μM-25 μM) (CHO-K1 cells): showed inhibition of cell proliferation
- Rate of treprostinil alkyl ester conversion [3]: 32.5 nmOL/h * g of protein
- Rate of treprostinil alkyl ester conversion [4]: 17.3 nmOL/h * g of protein

SMILES: CCCCCCCCCCCCOC(=O)COc1cccc2c1C[C@H]1C[C@@H](O)[C@H](CC[C@@H](O)CCCCC)[C@H]1C2 [Compound C12-TR, dodecyl-treprostinil]
- Rate of treprostinil alkyl ester conversion [1]: 2.2 nmOL/h * g of protein
- Effect on cell proliferation, NR8383 Cells (0.195 μM-25 μM) [2]: No detectable cell inhibition
- Effect on cell proliferation, CHO-K1 Cells (0.195 μM-25 μM) (CHO-K1 cells): No detectable cell inhibition
- Rate of treprostinil alkyl ester conversion [3]: 1.1 nmOL/h * g of protein
- Rate of treprostinil alkyl ester conversion [4]: 0.6 nmOL/h * g of protein

SMILES: CCCCCCCCCCCCCCCCOC(=O)COc1cccc2c1C[C@H]1C[C@@H](O)[C@H](CC[C@@H](O)CCCCC)[C@H]1C2 [Compound C16-TR, hexadecyl-treprostinil]
- ranking of activity of the treprostinil compounds (EP2 prostanoid receptor; kinetic profile, 10 μM and 5 μM, FIG. 21): C12-TR>C14-TR>5-nonanyl-TR>C16-TR
- tolerability, body weights and organ weights [5]: no tolerability issues or significant changes (relative to PBS) in body weights and organ weights; also recorded: well tolerated with no evidence of body weight and organ weight change

SMILES: CCCCC[C@H](O)CC[C@@H]1[C@H]2Cc3cccc(OCC(=O)O)c3C[C@H]2C[C@H]1O [Treprostinil, (1R,2R,3aS,9aS)-[[2,3,3a,4,9,9α-hexahydro-2-hydroxy-1-[(3S)-3-hydroxyoctyl]-1H-benz[f]inden-5-yl]oxy]acetic acid]
- exposure concentration consistently evoking cough ([6]; 1-300 μg/ml tested): ≥ 30 µg/mL
- cough bouts [6, 9]: 1-4
- cough response [6, 9]: consistent cough in 7 of 7 guinea pigs
- total number of coughs ([6]; nebulized concentration of 30 μg/mL, 10 min delivery + 20 min): 36±9 coughs
- cAMP levels sustained for (EP2 prostanoid receptor; 10 μM, composition, FIG. 3A): not exhibited
- Max cAMP level (Fold) (EP2 prostanoid receptor; Effect of nebulization (FIG. 6), head prints (5 μM)): ~15 Fold
- EC50 (EP2 prostanoid receptor; cAMP response in CHO-K1 cells, 4.5 hr incubation): 0.2 µM
- Max cAMP level (Fold) (EP2 prostanoid receptor; compositions shown in FIG. 3, 8 hours time course): ~16 Fold
- Max cAMP level (Fold) (EP2 prostanoid receptor; compositions shown in FIG. 4, 5 μM, 8 hours time course): ~14 Fold
- period over which plasma levels of treprostinil were sustained [7]: disappeared within a few hours
- time beyond which measurable levels of TRE were not seen in the blood plasma [8]: ≤ 4 h
